Laboratory results taken from PubChem BioAssay AID2060326 (Molecular Pharmacology Branch, DTP, NCI, 2025).

Test system: MDA-MB-468 multi-cell spheroids, viability
Assay: Anticancer human tumor MDA-MB-468 cell line growth inhibition [IpAb];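 note: spheroids exposed to agents for seven days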;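 for viability, T/C: 100% = DMSO vehicle control viability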
Settings: for IC50: curve of first compound; for viability, T/C: stronger effect = lower value
Procedure, shortened: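 Spheroids of 60% malignant cells, 25% HUVEC and 15% MSC were exposed to targeted agents combined with ipatasertib or abemaciclib. Doses started at or near clinical Cmax (10 microM when unknown) and fell in half-log steps.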

[1] = second compound 0.1 µM, first compound 0.0316 µM
[2] = second compound 0.1 µM, first compound 0.1 µM
[3] = second compound 0.316 µM, first compound 0.0316 µM
[4] = second compound 0.316 µM, first compound 0.1 µM
[5] = second compound 1 µM, first compound 0.0316 µM
[6] = second compound 1 µM, first compound 0.1 µM

Compound: CC(C)(C)c1cnc(CSc2cnc(NC(=O)C3CCNCC3)s2)o1 + CCN1CCN(Cc2ccc(Nc3ncc(F)c(-c4cc(F)c5nc(C)n(C(C)C)c5c4)n3)nc2)CC1
- IC50 (second compound 0.01 µM): 105 nM
- IC50 (second compound 0.0316 µM): 79.4 nM
- IC50 (second compound 0.1 µM): 115 nM
- IC50 (second compound 0.316 µM): 62.3 nM
- IC50 (second compound 1 µM): 42.6 nM
- viability, T/C (second compound 0.01 µM, first compound 0.00949 µM): 110%
- viability, T/C (second compound 0.01 µM, first compound 0.03 µM): 102%
- viability, T/C (second compound 0.01 µM, first compound 0.0949 µM): 55.2%
- viability, T/C (second compound 0.01 µM, first compound 0.3 µM): 0.29%
- viability, T/C (second compound 0.01 µM, first compound 0.949 µM): 0.19%
- viability, T/C (second compound 0.01 µM, first compound 3 µM): 0.31%
- viability, T/C (second compound 0.0316 µM, first compound 0.00949 µM): 94.8%
- viability, T/C (second compound 0.0316 µM, first compound 0.03 µM): 92%
- viability, T/C (second compound 0.0316 µM, first compound 0.0949 µM): 42.3%
- viability, T/C (second compound 0.0316 µM, first compound 0.3 µM): 0.24%
- viability, T/C (second compound 0.0316 µM, first compound 0.949 µM): 0.19%
- viability, T/C (second compound 0.0316 µM, first compound 3 µM): 0.32%
- viability, T/C (second compound 0.1 µM, first compound 0.00949 µM): 93.6%
- viability, T/C (second compound 0.1 µM, first compound 0.03 µM): 91.7%
- viability, T/C (second compound 0.1 µM, first compound 0.0949 µM): 59.9%
- viability, T/C (second compound 0.1 µM, first compound 0.3 µM): 0.22%
- viability, T/C (second compound 0.1 µM, first compound 0.949 µM): 0.22%
- viability, T/C (second compound 0.1 µM, first compound 3 µM): 0.29%
- viability, T/C (second compound 0.316 µM, first compound 0.00949 µM): 90.8%
- viability, T/C (second compound 0.316 µM, first compound 0.03 µM): 89.8%
- viability, T/C (second compound 0.316 µM, first compound 0.0949 µM): 27.1%
- viability, T/C (second compound 0.316 µM, first compound 0.3 µM): 0.32%
- viability, T/C (second compound 0.316 µM, first compound 0.949 µM): 0.26%
- viability, T/C (second compound 0.316 µM, first compound 3 µM): 0.31%
- viability, T/C (second compound 1 µM, first compound 0.00949 µM): 85.6%
- viability, T/C (second compound 1 µM, first compound 0.03 µM): 70.8%
- viability, T/C (second compound 1 µM, first compound 0.0949 µM): 2.25%
- viability, T/C (second compound 1 µM, first compound 0.3 µM): 0.45%
- viability, T/C (second compound 1 µM, first compound 0.949 µM): 0.35%
- viability, T/C (second compound 1 µM, first compound 3 µM): 0.37%

Compound: Cn1ncnc1[C@H]1c2n[nH]c(=O)c3cc(F)cc(c23)N[C@@H]1c1ccc(F)cc1 + CC(C)NCC(C(=O)N1CCN(c2ncnc3c2C(C)CC3O)CC1)c1ccc(Cl)cc1
- IC50 (second compound 0.1 µM): > 100 nM
- IC50 (second compound 0.316 µM): > 100 nM
- IC50 (second compound 1 µM): 17.9 nM
- IC50 (second compound 3.16 µM): < 0.316 nM
- IC50 (second compound 10 µM): < 0.316 nM
- viability, T/C (second compound 0.1 µM, first compound 0.000316 µM): 101%
- viability, T/C (second compound 0.1 µM, first compound 0.001 µM): 102%
- viability, T/C (second compound 0.1 µM, first compound 0.00316 µM): 86.9%
- viability, T/C (second compound 0.1 µM, first compound 0.01 µM): 73.8%
- viability, T/C [1]: 85.8%
- viability, T/C [2]: 65.7%
- viability, T/C (second compound 0.316 µM, first compound 0.000316 µM): 62%
- viability, T/C (second compound 0.316 µM, first compound 0.001 µM): 70.7%
- viability, T/C (second compound 0.316 µM, first compound 0.00316 µM): 62.1%
- viability, T/C (second compound 0.316 µM, first compound 0.01 µM): 60.2%
- viability, T/C [3]: 55.5%
- viability, T/C [4]: 57.7%
- viability, T/C (second compound 1 µM, first compound 0.000316 µM): 60.8%
- viability, T/C (second compound 1 µM, first compound 0.001 µM): 59.2%
- viability, T/C (second compound 1 µM, first compound 0.00316 µM): 55.1%
- viability, T/C (second compound 1 µM, first compound 0.01 µM): 54.2%
- viability, T/C [5]: 46.2%
- viability, T/C [6]: 41.8%
- viability, T/C (second compound 3.16 µM, first compound 0.000316 µM): 38.9%
- viability, T/C (second compound 3.16 µM, first compound 0.001 µM): 37.8%
- viability, T/C (second compound 3.16 µM, first compound 0.00316 µM): 40%
- viability, T/C (second compound 3.16 µM, first compound 0.01 µM): 34.9%
- viability, T/C (second compound 3.16 µM, first compound 0.0316 µM): 34%
- viability, T/C (second compound 3.16 µM, first compound 0.1 µM): 26.6%
- viability, T/C (second compound 10 µM, first compound 0.000316 µM): 19.3%
- viability, T/C (second compound 10 µM, first compound 0.001 µM): 22.5%
- viability, T/C (second compound 10 µM, first compound 0.00316 µM): 18.6%
- viability, T/C (second compound 10 µM, first compound 0.01 µM): 18.8%
- viability, T/C (second compound 10 µM, first compound 0.0316 µM): 16%
- viability, T/C (second compound 10 µM, first compound 0.1 µM): 15.6%

Compound: C=CCn1c(=O)c2cnc(Nc3ccc(N4CCN(C)CC4)cc3)nc2n1-c1cccc(C(C)(C)O)n1 + CCN1CCN(Cc2ccc(Nc3ncc(F)c(-c4cc(F)c5nc(C)n(C(C)C)c5c4)n3)nc2)CC1
- IC50 (second compound 0.01 µM): 467 nM
- IC50 (second compound 0.0316 µM): 461 nM
- IC50 (second compound 0.1 µM): 408 nM
- IC50 (second compound 0.316 µM): 560 nM
- IC50 (second compound 1 µM): 417 nM
- viability, T/C (second compound 0.01 µM, first compound 0.0316 µM): 108%
- viability, T/C (second compound 0.01 µM, first compound 0.1 µM): 75.5%
- viability, T/C (second compound 0.01 µM, first compound 0.316 µM): 72.8%
- viability, T/C (second compound 0.01 µM, first compound 1 µM): 6.04%
- viability, T/C (second compound 0.01 µM, first compound 3.16 µM): 2.55%
- viability, T/C (second compound 0.01 µM, first compound 10 µM): 2.34%
- viability, T/C (second compound 0.0316 µM, first compound 0.0316 µM): 96.3%
- viability, T/C (second compound 0.0316 µM, first compound 0.1 µM): 87.9%
- viability, T/C (second compound 0.0316 µM, first compound 0.316 µM): 71.3%
- viability, T/C (second compound 0.0316 µM, first compound 1 µM): 6.12%
- viability, T/C (second compound 0.0316 µM, first compound 3.16 µM): 2.93%
- viability, T/C (second compound 0.0316 µM, first compound 10 µM): 2.24%
- viability, T/C [1]: 121%
- viability, T/C [2]: 93.1%
- viability, T/C (second compound 0.1 µM, first compound 0.316 µM): 67.3%
- viability, T/C (second compound 0.1 µM, first compound 1 µM): 5.75%
- viability, T/C (second compound 0.1 µM, first compound 3.16 µM): 3.42%
- viability, T/C (second compound 0.1 µM, first compound 10 µM): 2.91%
- viability, T/C [3]: 105%
- viability, T/C [4]: 102%
- viability, T/C (second compound 0.316 µM, first compound 0.316 µM): 89.7%
- viability, T/C (second compound 0.316 µM, first compound 1 µM): 9.63%
- viability, T/C (second compound 0.316 µM, first compound 3.16 µM): 3.67%
- viability, T/C (second compound 0.316 µM, first compound 10 µM): 2.2%
- viability, T/C [5]: 72.3%
- viability, T/C [6]: 79.5%
- viability, T/C (second compound 1 µM, first compound 0.316 µM): 63.5%
- viability, T/C (second compound 1 µM, first compound 1 µM): 6.76%
- viability, T/C (second compound 1 µM, first compound 3.16 µM): 2.84%
- viability, T/C (second compound 1 µM, first compound 10 µM): 1.01%
